In ChEMBL document CHEMBL3885861, “Open TG-GATES”:

Organism: Rattus norvegicus
Experiment: Open TG-GATES - Regimen: Single
Assay type: toxicity, organism-based, Sprague-Dawley
Set-up: regimen Single, gender Male, age 6 weeks
Details: in vivo, po, route gavage; for APTT / Bas / Eos / Fbg / Hb / Ht / Lym / MCH / MCHC / MCV / Mono / Neu / PT / Plat / RBC / Ret / WBC: tissue Blood; for KIDNEY_L / KIDNEY_R / KIDNEY_TOTAL: tissue Kidney; for LIVER: tissue Liver; for A/G / ALP / ALT / AST / BUN / CRE / Ca / Cl / DBIL / GLC / IP / K / LDH / Na / PL / RALB / TBIL / TC / TG / TP / gamma-GTP: tissue Plasma
[1] = 100 mg/kg, 3 h, dose level Middle
[2] = 100 mg/kg, 6 h, dose level Middle
[3] = 100 mg/kg, 9 h, dose level Middle
[4] = 100 mg/kg, 24 h, dose level Middle
[5] = 300 mg/kg, 3 h, dose level High
[6] = 300 mg/kg, 6 h, dose level High
[7] = 300 mg/kg, 9 h, dose level High
[8] = 300 mg/kg, 24 h, dose level High

NC(=O)N/N=C/c1ccc([N+](=O)[O-])o1 [NITROFURAZONE]
TERMINAL_BW [1]: 183.7 g
APTT [1]: 16.6 s
Bas [1]: 0.2%
Eos [1]: 1%
Fbg [1]: 235.8 mg/dL
Hb [1]: 12.4 g/dL
Ht [1]: 38.5%
Lym [1]: 73.4%
MCH [1]: 21.7 pg
MCHC [1]: 32.3%
MCV [1]: 67.2 fL
Mono [1]: 5.2%
Neu [1]: 19.6%
PT [1]: 14.8 s
Plat [1]: 123.7 x10_4/uL
RBC [1]: 572.4 x10_4/ul
Ret [1]: 11.4%
WBC [1]: 71.3 x10_2/uL
KIDNEY_L [1]: 0.8 g
KIDNEY_R [1]: 0.8 g
KIDNEY_TOTAL [1]: 1.6 g
LIVER [1]: 7.7 g
A/G [1]: 0.9
ALP [1]: 1361.8 IU/L
ALT [1]: 41.2 IU/L
AST [1]: 74.8 IU/L
BUN [1]: 11.8 mg/dL
CRE [1]: 0.2 mg/dL
Ca [1]: 11.3 mg/dL
Cl [1]: 104.8 meq/L
DBIL [1]: 0.006 mg/dL
GLC [1]: 177.6 mg/dL
IP [1]: 8.8 mg/dL
K [1]: 4.3 meq/L
LDH [1]: 51.6 IU/L
Na [1]: 140.8 meq/L
PL [1]: 127.6 mg/dL
RALB [1]: 2.4 g/dL
TBIL [1]: 0.06 mg/dL
TC [1]: 73.4 mg/dL
TG [1]: 29.8 mg/dL
TP [1]: 5.2 g/dL
gamma-GTP [1]: 1.2 IU/L
TERMINAL_BW [2]: 182.2 g
APTT [2]: 16 s
Bas [2]: 0%
Eos [2]: 1%
Fbg [2]: 272.8 mg/dL
Hb [2]: 12.8 g/dL
Ht [2]: 40%
Lym [2]: 71.2%
MCH [2]: 21.3 pg
MCHC [2]: 32%
MCV [2]: 66.4 fL
Mono [2]: 3.2%
Neu [2]: 23.8%
PT [2]: 14.6 s
Plat [2]: 112.7 x10_4/uL
RBC [2]: 602 x10_4/ul
Ret [2]: 10.1%
WBC [2]: 85.4 x10_2/uL
KIDNEY_L [2]: 0.8 g
KIDNEY_R [2]: 0.8 g
KIDNEY_TOTAL [2]: 1.7 g
LIVER [2]: 7.3 g
A/G [2]: 0.9
ALP [2]: 1451.4 IU/L
ALT [2]: 41.4 IU/L
AST [2]: 74 IU/L
BUN [2]: 8.6 mg/dL
CRE [2]: 0.2 mg/dL
Ca [2]: 11.3 mg/dL
Cl [2]: 105.2 meq/L
DBIL [2]: 0.01 mg/dL
GLC [2]: 162.4 mg/dL
IP [2]: 9.8 mg/dL
K [2]: 3.8 meq/L
LDH [2]: 85.8 IU/L
Na [2]: 142.4 meq/L
PL [2]: 146.6 mg/dL
RALB [2]: 2.4 g/dL
TBIL [2]: 0.072 mg/dL
TC [2]: 89.4 mg/dL
TG [2]: 25.8 mg/dL
TP [2]: 5.2 g/dL
gamma-GTP [2]: 1.2 IU/L
TERMINAL_BW [3]: 176.6 g
APTT [3]: 15.8 s
Bas [3]: 0%
Eos [3]: 1%
Fbg [3]: 270.8 mg/dL
Hb [3]: 13.5 g/dL
Ht [3]: 41.4%
Lym [3]: 72.5%
MCH [3]: 21.6 pg
MCHC [3]: 32.4%
MCV [3]: 66.6 fL
Mono [3]: 2.8%
Neu [3]: 22.8%
PT [3]: 14.8 s
Plat [3]: 103.9 x10_4/uL
RBC [3]: 622.2 x10_4/ul
Ret [3]: 10.2%
WBC [3]: 69.6 x10_2/uL
KIDNEY_L [3]: 0.8 g
KIDNEY_R [3]: 0.8 g
KIDNEY_TOTAL [3]: 1.6 g
LIVER [3]: 7.2 g
A/G [3]: 0.9
ALP [3]: 1273.8 IU/L
ALT [3]: 39 IU/L
AST [3]: 74.5 IU/L
BUN [3]: 9 mg/dL
CRE [3]: 0.2 mg/dL
Ca [3]: 10.9 mg/dL
Cl [3]: 104.5 meq/L
DBIL [3]: 0.0175 mg/dL
GLC [3]: 165 mg/dL
IP [3]: 11.4 mg/dL
K [3]: 4 meq/L
LDH [3]: 69.2 IU/L
Na [3]: 142.2 meq/L
PL [3]: 149.5 mg/dL
RALB [3]: 2.4 g/dL
TBIL [3]: 0.0675 mg/dL
TC [3]: 83.5 mg/dL
TG [3]: 38.8 mg/dL
TP [3]: 5.1 g/dL
gamma-GTP [3]: 1.2 IU/L
TERMINAL_BW [4]: 185.1 g
APTT [4]: 15.7 s
Bas [4]: 0%
Eos [4]: 0.6%
Fbg [4]: 296 mg/dL
Hb [4]: 13.1 g/dL
Ht [4]: 40.5%
Lym [4]: 83.4%
MCH [4]: 21.8 pg
MCHC [4]: 32.4%
MCV [4]: 67.2 fL
Mono [4]: 3%
Neu [4]: 12.2%
PT [4]: 14.8 s
Plat [4]: 109 x10_4/uL
RBC [4]: 602 x10_4/ul
Ret [4]: 9.3%
WBC [4]: 90.2 x10_2/uL
KIDNEY_L [4]: 0.8 g
KIDNEY_R [4]: 0.8 g
KIDNEY_TOTAL [4]: 1.7 g
LIVER [4]: 8.6 g
A/G [4]: 0.9
ALP [4]: 1441.6 IU/L
ALT [4]: 44.6 IU/L
AST [4]: 78.4 IU/L
BUN [4]: 14 mg/dL
CRE [4]: 0.2 mg/dL
Ca [4]: 11 mg/dL
Cl [4]: 103.6 meq/L
DBIL [4]: 0.016 mg/dL
GLC [4]: 168.8 mg/dL
IP [4]: 8.5 mg/dL
K [4]: 4 meq/L
LDH [4]: 71.6 IU/L
Na [4]: 140.6 meq/L
PL [4]: 140.6 mg/dL
RALB [4]: 2.5 g/dL
TBIL [4]: 0.058 mg/dL
TC [4]: 77.6 mg/dL
TG [4]: 73.8 mg/dL
TP [4]: 5.4 g/dL
gamma-GTP [4]: 1 IU/L
TERMINAL_BW [5]: 181.2 g
APTT [5]: 16.7 s
Bas [5]: 0%
Eos [5]: 0.6%
Fbg [5]: 230.6 mg/dL
Hb [5]: 12.3 g/dL
Ht [5]: 38.2%
Lym [5]: 70.4%
MCH [5]: 21.7 pg
MCHC [5]: 32.3%
MCV [5]: 67 fL
Mono [5]: 4.6%
Neu [5]: 23.6%
PT [5]: 14.9 s
Plat [5]: 114.6 x10_4/uL
RBC [5]: 569.8 x10_4/ul
Ret [5]: 10.8%
WBC [5]: 73.1 x10_2/uL
KIDNEY_L [5]: 0.8 g
KIDNEY_R [5]: 0.8 g
KIDNEY_TOTAL [5]: 1.6 g
LIVER [5]: 7.5 g
A/G [5]: 0.9
ALP [5]: 1634 IU/L
ALT [5]: 47 IU/L
AST [5]: 81.6 IU/L
BUN [5]: 11.8 mg/dL
CRE [5]: 0.2 mg/dL
Ca [5]: 11.1 mg/dL
Cl [5]: 105.2 meq/L
DBIL [5]: 0.002 mg/dL
GLC [5]: 181.6 mg/dL
IP [5]: 8.9 mg/dL
K [5]: 3.9 meq/L
LDH [5]: 47.8 IU/L
Na [5]: 142 meq/L
PL [5]: 135.8 mg/dL
RALB [5]: 2.4 g/dL
TBIL [5]: 0.056 mg/dL
TC [5]: 78 mg/dL
TG [5]: 29.4 mg/dL
TP [5]: 5.2 g/dL
gamma-GTP [5]: 1.6 IU/L
TERMINAL_BW [6]: 181.5 g
APTT [6]: 15.7 s
Bas [6]: 0%
Eos [6]: 1%
Fbg [6]: 265 mg/dL
Hb [6]: 12.7 g/dL
Ht [6]: 39.5%
Lym [6]: 71.2%
MCH [6]: 21.5 pg
MCHC [6]: 32.1%
MCV [6]: 67 fL
Mono [6]: 4%
Neu [6]: 23.4%
PT [6]: 14.6 s
Plat [6]: 115.7 x10_4/uL
RBC [6]: 589.4 x10_4/ul
Ret [6]: 10.7%
WBC [6]: 70.2 x10_2/uL
KIDNEY_L [6]: 0.8 g
KIDNEY_R [6]: 0.8 g
KIDNEY_TOTAL [6]: 1.6 g
LIVER [6]: 7.6 g
A/G [6]: 0.9
ALP [6]: 1281.4 IU/L
ALT [6]: 44 IU/L
AST [6]: 77 IU/L
BUN [6]: 9.2 mg/dL
CRE [6]: 0.2 mg/dL
Ca [6]: 11 mg/dL
Cl [6]: 105.4 meq/L
DBIL [6]: 0.006 mg/dL
GLC [6]: 171 mg/dL
IP [6]: 9 mg/dL
K [6]: 3.7 meq/L
LDH [6]: 47.6 IU/L
Na [6]: 142.2 meq/L
PL [6]: 149 mg/dL
RALB [6]: 2.5 g/dL
TBIL [6]: 0.066 mg/dL
TC [6]: 84.4 mg/dL
TG [6]: 24.4 mg/dL
TP [6]: 5.4 g/dL
gamma-GTP [6]: 1.4 IU/L
TERMINAL_BW [7]: 181 g
APTT [7]: 15.4 s
Bas [7]: 0%
Eos [7]: 1%
Fbg [7]: 282.4 mg/dL
Hb [7]: 12.4 g/dL
Ht [7]: 38.2%
Lym [7]: 64.4%
MCH [7]: 21.8 pg
MCHC [7]: 32.3%
MCV [7]: 67.4 fL
Mono [7]: 3%
Neu [7]: 30.4%
PT [7]: 14.5 s
Plat [7]: 120.7 x10_4/uL
RBC [7]: 567.2 x10_4/ul
Ret [7]: 10.7%
WBC [7]: 63.1 x10_2/uL
KIDNEY_L [7]: 0.8 g
KIDNEY_R [7]: 0.8 g
KIDNEY_TOTAL [7]: 1.7 g
LIVER [7]: 7.5 g
A/G [7]: 0.9
ALP [7]: 1242 IU/L
ALT [7]: 39.2 IU/L
AST [7]: 79 IU/L
BUN [7]: 10.4 mg/dL
CRE [7]: 0.1 mg/dL
Ca [7]: 10.8 mg/dL
Cl [7]: 103.8 meq/L
DBIL [7]: 0.006 mg/dL
GLC [7]: 196 mg/dL
IP [7]: 10.6 mg/dL
K [7]: 3.6 meq/L
LDH [7]: 69 IU/L
Na [7]: 141 meq/L
PL [7]: 135.2 mg/dL
RALB [7]: 2.4 g/dL
TBIL [7]: 0.062 mg/dL
TC [7]: 78.8 mg/dL
TG [7]: 23.2 mg/dL
TP [7]: 5.2 g/dL
gamma-GTP [7]: 1.4 IU/L
TERMINAL_BW [8]: 167.8 g
APTT [8]: 16.1 s
Bas [8]: 0%
Eos [8]: 0.5%
Fbg [8]: 368.8 mg/dL
Hb [8]: 14.1 g/dL
Ht [8]: 42.9%
Lym [8]: 69%
MCH [8]: 21.6 pg
MCHC [8]: 32.6%
MCV [8]: 66 fL
Mono [8]: 3.2%
Neu [8]: 26.5%
PT [8]: 15.8 s
Plat [8]: 112.2 x10_4/uL
RBC [8]: 651.8 x10_4/ul
Ret [8]: 8.6%
WBC [8]: 68.9 x10_2/uL
KIDNEY_L [8]: 0.8 g
KIDNEY_R [8]: 0.8 g
KIDNEY_TOTAL [8]: 1.6 g
LIVER [8]: 7 g
A/G [8]: 0.9
ALP [8]: 1162.2 IU/L
ALT [8]: 186 IU/L
AST [8]: 88 IU/L
BUN [8]: 15 mg/dL
CRE [8]: 0.2 mg/dL
Ca [8]: 10.6 mg/dL
Cl [8]: 105.8 meq/L
DBIL [8]: 0.0125 mg/dL
GLC [8]: 174.8 mg/dL
IP [8]: 9.7 mg/dL
K [8]: 3.4 meq/L
LDH [8]: 78.8 IU/L
Na [8]: 142.8 meq/L
PL [8]: 131.2 mg/dL
RALB [8]: 2.4 g/dL
TBIL [8]: 0.0825 mg/dL
TC [8]: 83.8 mg/dL
TG [8]: 39.8 mg/dL
TP [8]: 5.3 g/dL
gamma-GTP [8]: 0.8 IU/L
